# Measured values published in paper PMC7549094 (Journal of Medicinal Chemistry, 2020).
# Columns and labels:
# [1] = male Sprague–Dawley rat, 10 mg/kg PO; dose-normalized
# in vivo = details: Balb/c, mouse, plasma
# Method: In Vivo PK Studies in Mice.
# The solution was filtered using a 0.45 m syringe filter before dosing. Two male Balb/c mice were administered 1 intravenously via the lateral tail
# vein at 5 mg/kg with a dose volume of 2.0 mL/kg. 1 was also formulated in a suspension of 0.5%
# methylcellulose with 0.5% Tween 80 (0.5% MC/0.5% Tw80) in water at 2.5 mg/mL. A group of mice
# (n=3) were administered 1 orally via gavage at 20 mg/kg with a dose volume of 8.0 mL/kg.
# The mouse blood samples were centrifuged to separate plasma and the plasma samples were frozen at -
# In Vivo PK Studies in Rats.
# Two male Wistar rats were administered
# 1 intravenously via the lateral tail vein at 3 mg/kg with a dose volume of 1.0 mL/kg. 1 was also formulated
# in a suspension of 0.5% methylcellulose with 0.5% Tween 80 (0.5% MC/0.5% Tw80) in water at 2.0
# mg/mL. The second group of rats (n=3) were administered 1 orally via gavage at 10 mg/kg in suspension
# with a dose volume of 5.0 mL/kg. Six blood samples of 100 μL each were collected serially from each
# animal via the saphenous vein up to 24 hours after dosing. The rat blood samples were centrifuged to
# separate plasma and the plasma samples were frozen at -20°C until analysis.
# In Vivo PK Studies in Dogs.
# The solution was filtered using a 0.45 m syringe filter before dosing. Three male Beagle dogs were administered 1 intravenously via saphenous
# vein at 0.3 mg/kg with a dose volume of 0.1 mL/kg. 1 was also formulated in a suspension of 0.5%
# methylcellulose with 0.5% Tween 80 (0.5%MC/0.5% Tween 80) in water at 1.0 mg/mL. The second
# group of male dogs (n=2) were administered 1- orally via gavage at 1.0 mg/kg with a dose volume of 1.0
# mL/kg. Seven blood samples of 250 µL each were collected serially from each animal via the jugular vein
# The dog blood samples were centrifuged to separate plasma and the plasma
# samples were frozen at -20 °C until analysis.
# hr 5-HT2A ag = hr 5-HT2A ag (Homo sapiens, UniProt P28223); assay: receptor profile (Table S4); format: biochemical
# [2] = brain/plasma exposure in mice; format: in vivo; details: mouse, brain, read-out: brain/plasma AUC ratio
# hr Ad2A = hr Ad2A (Homo sapiens, UniProt P29274); assay: receptor profile (Table S4); format: binding
# hr TP ag = target: T1, hr TP ag (Homo sapiens, UniProt P21731); assay: receptor profile (Table S4); format: biochemical
# T1 sequence (P21731 1-343): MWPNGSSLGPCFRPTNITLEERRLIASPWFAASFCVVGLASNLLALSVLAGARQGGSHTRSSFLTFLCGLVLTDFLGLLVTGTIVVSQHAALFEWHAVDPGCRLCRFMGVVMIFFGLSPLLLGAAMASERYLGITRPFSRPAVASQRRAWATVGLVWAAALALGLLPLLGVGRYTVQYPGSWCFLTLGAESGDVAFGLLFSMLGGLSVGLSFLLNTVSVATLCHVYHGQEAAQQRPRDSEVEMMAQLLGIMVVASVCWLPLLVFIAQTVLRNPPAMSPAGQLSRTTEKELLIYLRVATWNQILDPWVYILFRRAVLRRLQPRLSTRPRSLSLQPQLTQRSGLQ
# hr Al1A antag = target: T2, hr Al1A antag (Homo sapiens, UniProt P35348); assay: receptor profile (Table S4); format: biochemical
# T2 sequence (P35348 1-466): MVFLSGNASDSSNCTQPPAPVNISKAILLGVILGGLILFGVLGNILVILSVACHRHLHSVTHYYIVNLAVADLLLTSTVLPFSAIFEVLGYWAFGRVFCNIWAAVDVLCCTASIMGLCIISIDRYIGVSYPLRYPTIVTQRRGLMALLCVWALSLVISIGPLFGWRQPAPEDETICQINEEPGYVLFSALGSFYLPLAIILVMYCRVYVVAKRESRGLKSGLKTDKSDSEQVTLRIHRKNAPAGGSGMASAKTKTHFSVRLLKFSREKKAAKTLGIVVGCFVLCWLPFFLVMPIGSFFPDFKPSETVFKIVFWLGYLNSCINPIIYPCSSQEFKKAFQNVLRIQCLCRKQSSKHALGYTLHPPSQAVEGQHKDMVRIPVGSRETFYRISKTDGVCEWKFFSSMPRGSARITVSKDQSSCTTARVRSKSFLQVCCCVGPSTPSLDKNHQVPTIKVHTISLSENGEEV
# hr Al2A antag = target: T3, hr Al2A antag (Homo sapiens, UniProt P08913); assay: receptor profile (Table S4); format: biochemical
# T3 sequence (P08913 1-465): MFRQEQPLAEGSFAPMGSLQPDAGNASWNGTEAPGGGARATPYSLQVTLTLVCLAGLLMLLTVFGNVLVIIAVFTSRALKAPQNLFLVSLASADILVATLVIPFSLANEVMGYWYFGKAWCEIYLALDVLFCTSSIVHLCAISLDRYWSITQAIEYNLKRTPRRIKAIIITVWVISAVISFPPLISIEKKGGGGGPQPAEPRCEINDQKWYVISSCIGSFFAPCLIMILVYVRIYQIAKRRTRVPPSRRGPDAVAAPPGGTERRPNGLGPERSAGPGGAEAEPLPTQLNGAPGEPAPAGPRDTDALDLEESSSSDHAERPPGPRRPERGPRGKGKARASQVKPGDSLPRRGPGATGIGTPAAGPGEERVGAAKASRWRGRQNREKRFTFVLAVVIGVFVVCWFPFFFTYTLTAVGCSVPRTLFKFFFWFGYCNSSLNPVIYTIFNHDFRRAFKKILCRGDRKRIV
# ov COX-1 = target: T4, ov COX-1 (Ovis aries, UniProt P05979); assay: receptor profile (Table S4); format: biochemical, ovine
# T4 sequence (P05979 25-600): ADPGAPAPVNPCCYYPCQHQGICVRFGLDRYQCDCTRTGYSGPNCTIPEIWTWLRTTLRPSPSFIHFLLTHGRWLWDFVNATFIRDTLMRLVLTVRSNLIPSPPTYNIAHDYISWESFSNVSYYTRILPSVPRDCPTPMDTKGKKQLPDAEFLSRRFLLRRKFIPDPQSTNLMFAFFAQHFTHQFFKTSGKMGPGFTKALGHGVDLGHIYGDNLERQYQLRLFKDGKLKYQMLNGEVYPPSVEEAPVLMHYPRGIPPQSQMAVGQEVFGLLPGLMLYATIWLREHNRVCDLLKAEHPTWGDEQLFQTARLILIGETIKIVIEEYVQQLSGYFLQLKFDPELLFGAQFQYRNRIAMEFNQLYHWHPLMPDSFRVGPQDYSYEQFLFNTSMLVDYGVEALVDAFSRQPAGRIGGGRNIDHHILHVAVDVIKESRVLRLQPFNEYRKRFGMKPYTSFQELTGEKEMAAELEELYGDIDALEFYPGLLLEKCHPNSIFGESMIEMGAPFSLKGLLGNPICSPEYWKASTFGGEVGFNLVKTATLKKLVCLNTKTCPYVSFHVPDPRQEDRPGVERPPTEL
# PXR = PXR (Homo sapiens, UniProt O75469); assay: receptor profile (Table S4); details: human
# hr PXR ag = hr PXR ag (Homo sapiens, UniProt O75469); assay: receptor profile (Table S4); details: hr PXR ag
# hr PXR ag, sequence (O75469 whole entry): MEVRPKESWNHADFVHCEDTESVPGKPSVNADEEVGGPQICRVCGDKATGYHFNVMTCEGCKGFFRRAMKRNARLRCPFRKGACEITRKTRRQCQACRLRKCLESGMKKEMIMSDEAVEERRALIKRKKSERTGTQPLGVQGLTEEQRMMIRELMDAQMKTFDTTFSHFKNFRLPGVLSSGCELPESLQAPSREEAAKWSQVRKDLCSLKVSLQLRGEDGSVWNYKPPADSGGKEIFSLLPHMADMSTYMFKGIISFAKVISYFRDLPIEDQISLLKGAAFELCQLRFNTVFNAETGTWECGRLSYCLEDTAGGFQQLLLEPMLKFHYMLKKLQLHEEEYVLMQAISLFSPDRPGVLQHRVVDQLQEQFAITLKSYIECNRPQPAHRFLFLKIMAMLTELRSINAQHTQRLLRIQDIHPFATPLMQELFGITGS
# hr Ad2A, sequence (P29274 whole entry): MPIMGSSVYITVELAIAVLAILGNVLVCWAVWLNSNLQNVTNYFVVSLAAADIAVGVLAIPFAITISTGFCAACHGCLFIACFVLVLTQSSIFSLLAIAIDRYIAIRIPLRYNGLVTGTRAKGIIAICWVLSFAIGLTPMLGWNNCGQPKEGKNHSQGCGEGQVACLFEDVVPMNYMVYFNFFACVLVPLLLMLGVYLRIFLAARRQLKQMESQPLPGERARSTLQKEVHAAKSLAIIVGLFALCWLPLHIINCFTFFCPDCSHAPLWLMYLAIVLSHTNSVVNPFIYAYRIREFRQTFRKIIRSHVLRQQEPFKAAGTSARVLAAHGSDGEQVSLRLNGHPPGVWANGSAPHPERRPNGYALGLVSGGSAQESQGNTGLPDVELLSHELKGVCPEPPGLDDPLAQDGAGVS
# hr 5-HT2A ag, sequence (P28223 whole entry): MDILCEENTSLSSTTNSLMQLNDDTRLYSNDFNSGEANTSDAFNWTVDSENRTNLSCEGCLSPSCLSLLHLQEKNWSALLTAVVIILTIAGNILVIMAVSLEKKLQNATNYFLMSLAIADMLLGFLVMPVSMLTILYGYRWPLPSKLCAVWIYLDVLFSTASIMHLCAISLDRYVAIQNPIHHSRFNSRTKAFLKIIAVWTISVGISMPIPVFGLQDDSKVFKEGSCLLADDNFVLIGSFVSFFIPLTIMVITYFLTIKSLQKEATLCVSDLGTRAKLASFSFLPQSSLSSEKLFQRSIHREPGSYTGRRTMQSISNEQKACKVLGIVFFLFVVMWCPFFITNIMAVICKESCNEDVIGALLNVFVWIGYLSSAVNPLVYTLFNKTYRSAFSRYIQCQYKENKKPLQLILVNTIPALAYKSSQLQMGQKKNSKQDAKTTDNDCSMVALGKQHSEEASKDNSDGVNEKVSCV
# PXR, sequence (O75469 whole entry): as the sequence (O75469 whole entry) above
smiles,measurement,setting,value
"Cc1nc(C)c(C(=O)Nc2ccc(F)c(-c3nc4ncc(-c5ncccc5C)cn4n3)c2)o1 [compound 1, N-(4-Fluoro-3-(6-(3-methylpyridin-2-yl)-[1,2,4]triazolo[1,5-a]pyrimidin-2-yl)phenyl)-2,4-dimethyloxazole-5-carboxamide]",DN AUC PO,[1],12 µM·h
same,DN Cmax PO,[1],1000 nM
same,bioavailability,"in vivo; po, 20 mg/kg",46%
same,MRT,"in vivo; male, iv, 5 mg/kg",4.6 h
same,Vd,"in vivo; male, iv, 5 mg/kg",0.63 L/kg
same,clearance,"in vivo; male, iv, 5 mg/kg",2.3 mL/min/kg
same,half-life,"in vivo; male, iv, 5 mg/kg",3.3 h
same,EC50/IC50,hr 5-HT2A ag; hr 5-HT2A ag,> 30 µM
same,inhibition at 10 µM,hr 5-HT2A ag; read-out: % inh/act @ 10 µM,-7%
same,inhibition at 30 µM,hr 5-HT2A ag; read-out: % inh/act @ 30 µM,-10%
same,Kp,[2],0.03
same,% inh/act @ 10 µM,r BZD,7%
same,% inh/act @ 30 µM,r BZD,7%
same,EC50/IC50,hr Ad2A; hr Ad2A,> 30 µM
same,inhibition at 10 µM,hr Ad2A; read-out: % inh/act @ 10 µM,26%
same,inhibition at 30 µM,hr Ad2A; read-out: % inh/act @ 30 µM,52%
same,EC50/IC50,hr TP ag; hr TP ag,> 30 µM
same,inhibition at 10 µM,hr TP ag; read-out: % inh/act @ 10 µM,-5%
same,inhibition at 30 µM,hr TP ag; read-out: % inh/act @ 30 µM,-2%
same,EC50/IC50,hr Al1A antag; hr Al1A antag,> 30 µM
same,inhibition at 10 µM,hr Al1A antag; read-out: % inh/act @ 10 µM,-4%
same,inhibition at 30 µM,hr Al1A antag; read-out: % inh/act @ 30 µM,8%
same,EC50/IC50,hr Al2A antag; hr Al2A antag,> 30 µM
same,inhibition at 10 µM,hr Al2A antag; read-out: % inh/act @ 10 µM,20%
same,inhibition at 30 µM,hr Al2A antag; read-out: % inh/act @ 30 µM,22%
same,EC50/IC50,ov COX-1; ov COX-1,> 30 µM
same,inhibition at 10 µM,ov COX-1; read-out: % inh/act @ 10 µM,16%
same,inhibition at 30 µM,ov COX-1; read-out: % inh/act @ 30 µM,14%
same,inhibition at 10 µM,PXR,0%
same,EC50/IC50,hr PXR ag,> 30 µM
